Source: ChEMBL document CHEMBL1201862, “PubChem BioAssay data set” (2004)
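Following 48 hours of exposure in 96-well plates, responses at five concentrations were used to interpolate endpoints linearly. At the GI50, growth is halved.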 Activity calls are given as the source filed them. No stated cut-off is given here; in the data, active = GI50 up to about 1.1 µM and inactive = higher.

What was measured:
Test in all cases: NCI anticancer screen, dose series, 48 h
SR = test system: SR
HCT-116 = test system: HCT-116
A498 = test system: A498
LOX IMVI = test system: LOX IMVI
HOP-62 = test system: HOP-62
A549 = test system: A549
Hs-578T = test system: Hs-578T
NCI-H226 = test system: NCI-H226
DU-145 = test system: DU-145
UACC-62 = test system: UACC-62
NCI-H23 = test system: NCI-H23
CCRF-CEM = test system: CCRF-CEM
SN12C = test system: SN12C
SF-295 = test system: SF-295
SF-268 = test system: SF-268
786-0 = test system: 786-0
RPMI-8226 = test system: RPMI-8226
Malme-3M = test system: Malme-3M
OVCAR-3 = test system: OVCAR-3
SK-MEL-2 = test system: SK-MEL-2

Row | SMILES | GI50 (SR) | GI50 (HCT-116) | GI50 (A498) | GI50 (LOX IMVI) | GI50 (HOP-62) | GI50 (A549) | GI50 (Hs-578T) | GI50 (NCI-H226) | GI50 (DU-145) | GI50 (UACC-62) | GI50 (NCI-H23) | GI50 (CCRF-CEM) | GI50 (SN12C) | GI50 (SF-295) | GI50 (SF-268) | GI50 (786-0) | GI50 (RPMI-8226) | GI50 (Malme-3M) | GI50 (OVCAR-3) | GI50 (SK-MEL-2)
1 | O=C1N2CCN=C2c2ccccc2C1(O)c1ccccc1 (stereo not drawn) | > 100 µM (inactive) | > 100 µM (inactive) | > 100 µM (inactive) | > 100 µM (inactive) | > 100 µM (inactive) | > 100 µM (inactive) | > 100 µM (inactive) | > 100 µM (inactive) | > 100 µM (inactive) | > 100 µM (inactive) | > 100 µM (inactive) | > 100 µM (inactive) | > 100 µM (inactive) | > 100 µM (inactive) | > 100 µM (inactive) | > 100 µM (inactive) | > 100 µM (inactive) | – | – | –
2 | CC1(C)CC(C)(C)C1=NNC(N)=O | > 100 µM (inactive) | > 100 µM (inactive) | > 100 µM (inactive) | > 100 µM (inactive) | > 100 µM (inactive) | > 100 µM (inactive) | > 100 µM (inactive) | > 100 µM (inactive) | > 100 µM (inactive) | > 100 µM (inactive) | > 100 µM (inactive) | > 100 µM (inactive) | > 100 µM (inactive) | > 100 µM (inactive) | > 100 µM (inactive) | > 100 µM (inactive) | – | > 100 µM (inactive) | > 100 µM (inactive) | > 100 µM (inactive)
3 | CCN(CC)C1C(=O)NC1C#Cc1ccccc1 (stereo not drawn) | 32 µM (inactive) | > 100 µM (inactive) | > 100 µM (inactive) | 39.7 µM (inactive) | > 100 µM (inactive) | – | > 100 µM (inactive) | > 100 µM (inactive) | > 100 µM (inactive) | > 100 µM (inactive) | 71.4 µM (inactive) | 32 µM (inactive) | > 100 µM (inactive) | > 100 µM (inactive) | > 100 µM (inactive) | > 100 µM (inactive) | 76.7 µM (inactive) | 98.4 µM (inactive) | > 100 µM (inactive) | > 100 µM (inactive)
4 | COc1ccc(N2C(=O)C3c4[nH]c5ccc(OCc6ccccc6)cc5c4C4CCC(C(C)(C)C)CC4C3C2=O)cc1 (stereo not drawn) | > 100 µM (inactive) | 42.4 µM (inactive) | > 100 µM (inactive) | > 100 µM (inactive) | > 100 µM (inactive) | > 100 µM (inactive) | 54.2 µM (inactive) | > 100 µM (inactive) | > 100 µM (inactive) | > 100 µM (inactive) | > 100 µM (inactive) | – | 78.5 µM (inactive) | > 100 µM (inactive) | > 100 µM (inactive) | 27.9 µM (inactive) | > 100 µM (inactive) | 25.7 µM (inactive) | 57.5 µM (inactive) | > 100 µM (inactive)
5 | COC(=O)CN(CC(O)C(NC(C)=O)C(O)C=O)C(=O)OCc1ccccc1 (stereo not drawn) | > 100 µM (inactive) | > 100 µM (inactive) | > 100 µM (inactive) | > 100 µM (inactive) | > 100 µM (inactive) | > 100 µM (inactive) | > 100 µM (inactive) | > 100 µM (inactive) | > 100 µM (inactive) | > 100 µM (inactive) | > 100 µM (inactive) | > 100 µM (inactive) | > 100 µM (inactive) | > 100 µM (inactive) | > 100 µM (inactive) | > 100 µM (inactive) | > 100 µM (inactive) | > 50.5 µM (inactive) | > 100 µM (inactive) | > 100 µM (inactive)
6 | CC(=O)Oc1ccn2nc(C)c(Br)c2c1 | > 76.7 µM (inactive) | > 100 µM (inactive) | > 100 µM (inactive) | 34 µM (inactive) | > 67.1 µM (inactive) | > 70.5 µM (inactive) | > 100 µM (inactive) | > 100 µM (inactive) | > 100 µM (inactive) | 25.5 µM (inactive) | > 58.2 µM (inactive) | 29.9 µM (inactive) | > 100 µM (inactive) | > 100 µM (inactive) | > 53.8 µM (inactive) | > 100 µM (inactive) | – | 64.1 µM (inactive) | 39.3 µM (inactive) | > 54 µM (inactive)
7 | N#Cc1cc2c(n(C3OC(CO)C(O)C(O)C3O)c1=S)CCCCCC2 (stereo not drawn) | > 100 µM (inactive) | > 100 µM (inactive) | > 100 µM (inactive) | > 100 µM (inactive) | > 100 µM (inactive) | > 100 µM (inactive) | > 100 µM (inactive) | > 100 µM (inactive) | > 100 µM (inactive) | > 100 µM (inactive) | > 100 µM (inactive) | > 100 µM (inactive) | > 100 µM (inactive) | > 100 µM (inactive) | > 100 µM (inactive) | > 100 µM (inactive) | > 100 µM (inactive) | > 100 µM (inactive) | > 100 µM (inactive) | > 100 µM (inactive)
8 | OC1(c2ccccc2)CSc2ncnn21 (stereo not drawn) | > 100 µM (inactive) | > 100 µM (inactive) | > 100 µM (inactive) | > 100 µM (inactive) | > 100 µM (inactive) | > 100 µM (inactive) | > 100 µM (inactive) | > 100 µM (inactive) | 41.1 µM (inactive) | > 100 µM (inactive) | > 100 µM (inactive) | > 100 µM (inactive) | > 100 µM (inactive) | > 100 µM (inactive) | > 100 µM (inactive) | > 100 µM (inactive) | – | > 100 µM (inactive) | > 100 µM (inactive) | > 100 µM (inactive)
9 | C(=C/c1nnnn1-c1ccccc1)/Nc1ccccc1 | > 10 µM (inactive) | 31.9 µM (inactive) | > 100 µM (inactive) | 28.1 µM (inactive) | 25.4 µM (inactive) | 52.4 µM (inactive) | 31.8 µM (inactive) | 19.1 µM (inactive) | 24.7 µM (inactive) | 20.2 µM (inactive) | 23.7 µM (inactive) | 25.5 µM (inactive) | 30.8 µM (inactive) | 26.2 µM (inactive) | 31.7 µM (inactive) | 39.2 µM (inactive) | 31 µM (inactive) | 31.4 µM (inactive) | 27.2 µM (inactive) | 2.64 µM (inactive)
10 | c1cc(-c2ccc(-c3ccsc3)s2)cs1 | 28.2 µM (inactive) | > 100 µM (inactive) | 46.6 µM (inactive) | 66.7 µM (inactive) | 39.6 µM (inactive) | 22.4 µM (inactive) | 40.5 µM (inactive) | 47.5 µM (inactive) | > 100 µM (inactive) | 54.2 µM (inactive) | 16.2 µM (inactive) | 12.9 µM (inactive) | > 100 µM (inactive) | 54 µM (inactive) | > 100 µM (inactive) | 36.1 µM (inactive) | > 100 µM (inactive) | – | > 100 µM (inactive) | –
11 | CC1(C)CCc2c(cc3c(c2O)CCC(C)(C)O3)O1 | 76.6 µM (inactive) | 61.2 µM (inactive) | > 100 µM (inactive) | – | > 100 µM (inactive) | > 100 µM (inactive) | > 100 µM (inactive) | > 100 µM (inactive) | > 100 µM (inactive) | > 100 µM (inactive) | > 100 µM (inactive) | 67.8 µM (inactive) | > 100 µM (inactive) | 96.8 µM (inactive) | > 100 µM (inactive) | > 10 µM (inactive) | – | 12.3 µM (inactive) | > 100 µM (inactive) | 25.1 µM (inactive)
12 | Clc1ccc(-c2cc3nc4ccccc4nc3o2)cc1 | > 100 µM (inactive) | > 100 µM (inactive) | > 100 µM (inactive) | > 100 µM (inactive) | – | > 100 µM (inactive) | 15.7 µM (inactive) | > 100 µM (inactive) | > 100 µM (inactive) | 38.3 µM (inactive) | > 100 µM (inactive) | > 100 µM (inactive) | – | 58.7 µM (inactive) | 63.8 µM (inactive) | 37.1 µM (inactive) | > 100 µM (inactive) | > 100 µM (inactive) | > 100 µM (inactive) | > 100 µM (inactive)
13 | CC(C)[Si](OC1=C(c2ccccc2)C(NC(=O)/C=C/c2ccc([N+](=O)[O-])cc2)CCC1)(C(C)C)C(C)C (stereo not drawn) | > 100 µM (inactive) | > 100 µM (inactive) | > 100 µM (inactive) | > 100 µM (inactive) | > 100 µM (inactive) | > 100 µM (inactive) | > 100 µM (inactive) | > 100 µM (inactive) | > 100 µM (inactive) | > 100 µM (inactive) | > 100 µM (inactive) | > 100 µM (inactive) | – | > 100 µM (inactive) | > 100 µM (inactive) | > 100 µM (inactive) | 9.71 µM (inactive) | > 100 µM (inactive) | > 100 µM (inactive) | > 100 µM (inactive)
14 | O=C1CCCCC/C1=C\c1ccccc1 | > 100 µM (inactive) | > 100 µM (inactive) | > 100 µM (inactive) | > 100 µM (inactive) | > 100 µM (inactive) | > 100 µM (inactive) | > 100 µM (inactive) | 67.1 µM (inactive) | > 100 µM (inactive) | 63.4 µM (inactive) | > 100 µM (inactive) | – | > 100 µM (inactive) | > 100 µM (inactive) | > 100 µM (inactive) | > 100 µM (inactive) | 56.4 µM (inactive) | > 100 µM (inactive) | > 100 µM (inactive) | > 100 µM (inactive)
15 | CC1(C)N=C(N)N=C(N)N1c1ccc(Cl)cc1 | 1.36 µM (inactive) | 4.17 µM (inactive) | 58.6 µM (inactive) | 1.34 µM (inactive) | 9.02 µM (inactive) | 0.665 µM (active) | > 100 µM (inactive) | 85.5 µM (inactive) | 7.11 µM (inactive) | 4.84 µM (inactive) | 3.44 µM (inactive) | 2.74 µM (inactive) | 6.71 µM (inactive) | 3.33 µM (inactive) | 0.708 µM (active) | 0.598 µM (active) | 6.81 µM (inactive) | 26.2 µM (inactive) | – | 10 µM (inactive)
